Laboratory results published in PMC9224473 (International Journal of Molecular Sciences, 2022).
Values after ≈ are worked out from the molar mass of the structure shown. Read-outs that look alike come from different tables or passages of the source.

Legend:
[1] = system: E. coli ATCC 25922; test: MIC, broth microdilution, standard strain; type: cell-based, Escherichia coli; conditions: 35 °C; for MIC: Escherichia coli, ATCC25922, 19 h
[2] = system: S. aureus ATCC 29213; test: MIC, broth microdilution, standard strain; type: cell-based, Staphylococcus aureus; conditions: 35 °C; for MIC: Staphylococcus aureus, ATCC29213, 19 h
[3] = system: S. epidermidis ATCC 12228; test: MIC, broth microdilution, standard strain; type: cell-based, Staphylococcus epidermidis; conditions: 35 °C; for MIC: Staphylococcus epidermidis, ATCC12228, 19 h
[4] = system: HaCaT (human immortal keratinocyte cell line); test: MTT cytotoxicity assay; type: cell-based; conditions: 72 h, mean SD, read-out: IC50 HaCaT (normal cells)
Procedure: (§1) The human cell lines SW480 (primary colon cancer), SW620 (lymph node metastatic colon cancer from the same patient as primary cancer cells), HCT116 (colon carcinoma), HepG2 (liver cancer), and HaCaT (immortalized keratinocytes) were obtained from the American Type Culture Collection (ATCC, Rockville, MD, USA). The SW480, SW620 and HCT116 cells were grown in MEM (ThermoSci, Waltham, MA, USA), HepG2 and HaCaT in DMEM High Glucose (Biowest SAS, Nuaillé, France) supplemented with 10% foetal bovine serum (FBS), HEPES (20 mM), and antibiotics (100 U mL^−1 of Penicillin and 100 μg mL^−1 of Streptomycin). The cells were incubated in a humidified incubator at 37 °C/5% CO2, until 80–90% confluence was reached.
(§2) The cell viability was assessed by using of MTT salt [3-(4,5-dimethylthiazol-2-yl)-2,5-diphenyltetrazolium bromide] converted by mitochondrial dehydrogenase, occurring in living cells. The cells were seeded in 96-well plates at a density of 1 × 10^4 cells per well and allowed to adhere for 24 h at 37 °C in a CO2 humidified incubator. […]. The untreated cells were used as the control.
(§3) After 72 h incubation, the medium was replaced with 200 µL per well of free-serum medium containing 0.5 mg mL^−1 MTT and incubated for 4 h at 37 °C in a CO2 humidified incubator. Subsequently, the medium was removed and dimethyl sulfoxide (DMSO) with isopropanol (1:1) was added to dissolve the formazan crystals. The optical density was measured using UVM 340 reader (ASYS Hitech GmbH, Eugendorf, Austria) at a wavelength of 570 nm. The experiments were repeated three times. The cell viability was calculated as the percent of MTT reduced in treated cells versus control cells (untreated cells). The number of viable cells cultured without tested compounds was assumed as 100%. A decreased relative MTT level indicates decreased cell viability. The IC50 values were estimated using CompuSyn version 1.0.

[5] = system: SW480 (human primary colon cancer); test: MTT cytotoxicity assay; type: cell-based; conditions: mean SD
Procedure: as §1, §2, §3

[6] = system: HepG2 (human liver cancer); test: MTT cytotoxicity assay; type: cell-based; conditions: mean SD
Procedure: as §1, §2, §3

[7] = system: HCT116 (human colon cancer); test: MTT cytotoxicity assay; type: cell-based; conditions: mean SD
Procedure: as §1, §2, §3

[8] = system: S. aureus ATCC 25923; test: MIC, broth microdilution, standard strain; type: cell-based, Staphylococcus aureus; conditions: 35 °C; for MIC: Staphylococcus aureus, ATCC25923, 19 h
[9] = system: S. epidermidis ATCC 35984; test: MIC, broth microdilution, standard strain; type: cell-based, Staphylococcus epidermidis; conditions: 35 °C; for MIC: Staphylococcus epidermidis, ATCC35984, 19 h
[10] = system: S. aureus ATCC 6538; test: MIC, broth microdilution, standard strain; type: cell-based, Staphylococcus aureus; conditions: 35 °C; for MIC: Staphylococcus aureus, ATCC6538, 19 h
[11] = system: standard bacteria strains; test: Antimicrobial screening (MIC), standard bacteria strains; type: cell-based; conditions: MIC evaluation
Procedure: Obtained compounds were examined for antimicrobial potency. Firstly, all of them were screened for their minimal inhibitory concentrations (MICs). A suitable set of bacteria was used, including representative standard Gram-positive and Gram-negative rods (Table 2 and Table 3). For clarity, results are presented for menthol and thymol derivatives separately.
The antimicrobial assays were conducted using reference strains of bacteria derived from international microbe collections: American Type Culture Collection (ATCC) and National Collection of Type Culture (NCTC). The following standard strains of bacteria were used: Gram-positive—Staphylococcus aureus NCTC 4163, Staphylococcus aureus ATCC 25923, Staphylococcus aureus ATCC 6538, Staphylococcus aureus ATCC 29213, Staphylococcus epidermidis ATCC 12228, Staphylococcus epidermidis ATCC 35984, Gram-negative: Escherichia coli ATCC 25922, Pseudomonas aeruginosa ATCC 15442. […] Antimicrobial activity was examined by the Minimal Inhibitory Concentration (MIC) method under standard procedures provided by CLSI with some modifications. MIC was determined by the two-fold serial broth microdilution method in 96-well microtitration plates using Mueller–Hinton II broth medium (Becton Dickinson, Franklin Lakes, NJ, USA). The final inoculum of all studied bacteria was 10^6 CFU/mL (colony forming unit per millilitre). The stock solution of tested compounds was prepared in dimethyl sulfoxide (DMSO) and diluted to a maximum of 1% of solvent content with a sterile medium.

[12] = system: P. aeruginosa ATCC 15442; test: MIC, broth microdilution, standard strain; type: cell-based, Pseudomonas aeruginosa; conditions: 35 °C; for MIC: Pseudomonas aeruginosa, ATCC15442, 19 h
[13] = system: S. aureus NCTC 4163; test: MIC, broth microdilution, standard strain; type: cell-based, Staphylococcus aureus; conditions: 35 °C; for MIC: Staphylococcus aureus, NCTC4163, 19 h
[14] = system: SW620 (human metastatic colon cancer); test: MTT cytotoxicity assay; type: cell-based; conditions: mean SD
Procedure: as §1
The cell viability was assessed by using of MTT salt [3-(4,5-dimethylthiazol-2-yl)-2,5-diphenyltetrazolium bromide] converted by mitochondrial dehydrogenase, occurring in living cells. […] The untreated cells were used as the control.
as §3, with “Subsequently,” for “After 72 h incubation, the medium was replaced with 200 µL per well of free-serum medium containing 0.5 mg mL^−1 MTT and incubated for 4 h at 37 °C in a CO2 humidified incubator. Subsequently,”

Compound	Antimicrobial activity (in words) [11]	MIC [1] [µg/mL]	MIC [2] [µg/mL]	MIC [3] [µg/mL]	IC50 ([4]; Homo sapiens, HaCaT) [µM]	IC50 ([5]; Homo sapiens, SW480, 72 h) [µM]	IC50 ([6]; Homo sapiens, HepG2, 72 h) [µM]	IC50 ([7]; Homo sapiens, HCT-116, 72 h) [µM]	MIC [8] [µg/mL]	MIC [9] [µg/mL]	MIC [10] [µg/mL]	MIC [12] [µg/mL]	MIC [13] [µg/mL]	IC50 ([14]; Homo sapiens, SW-620, 72 h) [µM]	further results
2-(2-isopropyl-5-methylphenoxy)-2-oxobutyl-1-cyclopropyl-6-fluoro-7-{4-[2-(2-isopropyl-5-methylphenoxy)-2-oxobutyl]piperazin-1-yl}-4-oxo-1,4-dihydroquinoline-3-carboxylate [Compound 15]	rather inactive														MIC E. coli ATCC 25922 ([1]; 19 h): 128 µg/mL; MIC S. aureus ATCC 29213 ([2]; 19 h): 256 µg/mL; MIC S. epidermidis ATCC 12228 ([3]; 19 h): 128 µg/mL; IC50 [4]: 67.1 ± 4.6 µM; IC50 ([5]; 72 h): 40.8 ± 4.2 µM; IC50 ([6]; 72 h): 61.8 ± 1.5 µM; IC50 ([7]; 72 h): 48.2 ± 5.3 µM; MIC S. aureus ATCC 25923 ([8]; 19 h): 64 µg/mL; MIC S. epidermidis ATCC 35984 ([9]; 19 h): 128 µg/mL; MIC S. aureus ATCC 6538 ([10]; 19 h): 128 µg/mL; MIC P. aeruginosa ATCC 15442 ([12]; 19 h): >256 µg/mL; MIC S. aureus NCTC 4163 ([13]; 19 h): 64 µg/mL; IC50 ([14]; 72 h): 57.4 ± 3.6 µM
CC(C)[C@@H]1CC[C@@H](C)C[C@H]1OC(=O)CCCCOC(=O)c1cn(C2CC2)c2cc(N3CCN(CCCCC(=O)O[C@@H]4C[C@H](C)CC[C@H]4C(C)C)CC3)c(F)cc2c1=O [Compound 7, 5-((1R,2S,5R)-2-isopropyl-5-methylcyclohexyloxy)-5-oxopentyl-1-cyclopropyl-6-fluoro-7-{4-[5-((1R,2S,5R)-2-isopropyl-5-methylcyclohexyloxy)-5-oxopentyl]piperazin-1-yl}-4-oxo-1,4-dihydroquinoline-3-carboxylate]	rather inactive	> 256	> 256	> 256	25.6 ± 1.2	45.5 ± 5.5	32.8 ± 3.1	49.3 ± 6.5	> 256	> 256	> 256	> 256	> 256	54.1 ± 0.5	
CC(C)[C@@H]1CC[C@@H](C)C[C@H]1OC(=O)CCCCCOC(=O)c1cn(C2CC2)c2cc(N3CCN(CCCCCC(=O)O[C@@H]4C[C@H](C)CC[C@H]4C(C)C)CC3)c(F)cc2c1=O [Compound 8, 6-((1R,2S,5R)-2-isopropyl-5-methylcyclohexyloxy)-6-oxohexyl-1-cyclopropyl-6-fluoro-7-{4-[6-((1R,2S,5R)-2-isopropyl-5-methylcyclohexyloxy)-6-oxohexyl]piperazin-1-yl}-4-oxo-1,4-dihydroquinoline-3-carboxylate]	rather inactive	> 256	> 256	> 256	33.4 ± 3.8	78.2 ± 5.8	30.2 ± 1.9	31.6 ± 7.4	> 256	> 256	> 256	> 256	> 256	48.7 ± 2.8	
Cc1ccc(C(C)C)c(OC(=O)CCCCCOC(=O)c2cn(C3CC3)c3cc(N4CCN(CCCCCC(=O)Oc5cc(C)ccc5C(C)C)CC4)c(F)cc3c2=O)c1 [Compound 16]	rather inactive	> 256	256 (≈ 311 µM)	128 (≈ 155 µM)	64.9 ± 5.1	29.5 ± 1.9	41.8 ± 2.5	30.5 ± 2.3	128 (≈ 155 µM)	128 (≈ 155 µM)	64 (≈ 77.7 µM)	> 256	128 (≈ 155 µM)	49.6 ± 7	
